Reference: patent US20080261862A1, “Materials and Methods for Modulating Signalling by Alpha-V Integring Molecules” (priority 2004, published 2008)
Entries after “also recorded” stand apart in the source; their conditions may differ.

Key:
SMS-SB cells [1] = assay: Proliferation ([3H]-thymidine incorporation) of low cell density SMS-SB cultures; assay type: cell-based, human; details: 72 hr; for growth / thymidine incorporation of SMS-SB cells: LCD cultures, 2500 cells/well
Procedure: For stimulation experiments, SMS-SB cells were cultured at 2500 cells/100 μl culture (low cell density, LCD) a seeding density at which the cells are prone to apoptose^15. NALM-6 cells were washed extensively in PFHM prior to culture at 2, 500 cells/100 μl culture. Cultures were propagated, in the presence or absence of cytokines, MAbs or peptides, at 37° C. for 72 hours followed by addition of 0.3 μCi/well tritiated thymidine ([^3H]-TdR) for 18 hours prior to harvest; incorporation was determined by liquid scintillation spectrometry. Apoptosis was determined by staining harvested cells with propidium iodide (PI) and Hoechst 33342 for 1 minute prior to analysis on a Coulter Elite flow cytometer as previously described^15. For stromal cell/SMS-SB co-cultures, 6000 stromal cells were seeded into individual wells of a 96-well tray and allowed to adhere for 24 hr; anti-CD23 MAb or isotype matched control and SMS-SB cells were added to the wells to give a total culture volume of 100 μl. SMS-SB cells were added at 5, 25 or 50 cells per well and cultures were allowed to expand over a 2-4 week period.

SMS-SB cells [2] = assay: Flow cytometry binding of biotinylated peptides to SMS-SB cells; assay type: cell-based, human
Excerpt: FIG. 3C:—Binding of biotinylated peptides to pre-B cell lines was detected by addition of PE-streptavidin and flow cytometry; mean fluorescence index (MFI) data were derived using CellQuest software. The flow cytometric plots for binding of peptides #9 (black line), #11 (grey line) and #57 (shaded area) are illustrated (Panel i), and MFI data for binding of the noted peptides to SMS-SB (Panel ii), Blin-1 (Panel iii) and Nalm-6 (Panel iv) are shown. The unique nine amino acid sequence of each biotinylated tridecapeptide is shown with the RKC motif shared by αvβ5 binding peptides shown in bold (Panel ii).
Binding of peptides to cells was visualised by treating cells exposed to biotinylated peptides with fluorochrome-conjugated streptavidin and scoring binding by flow cytometry; mean fluorescence intensity data were obtained using the CellQuest programme. In culture experiments, peptides were used in the 10 nM to […] concentration range and appropriate solvent vehicle controls (e.g., acetonitrile, DMSO) were always performed.

| Molecule | growth / thymidine incorporation of SMS-SB cells (SMS-SB cells [1]) | binding of biotinylated peptide to SMS-SB cells (SMS-SB cells [2]; flow cytometry, MFI) | effect of RGDS on SMS-SB growth / thymidine incorporation induced by peptides #9 and #12 (SMS-SB cells [1]; 10 μg/ml RGDS) | effect of excess RGDS on peptide binding to SMS-SB cells (SMS-SB cells [2]; ten-fold excess / 10 μg/ml RGDS) |
| --- | --- | --- | --- | --- |
| CKRQFNIWK [9-INV] | reduces substantially, but does not ablate, its ability to elevate thymidine incorporation | does not reduce greatly binding | – | – |
| fibronectin [Fn] | neither Vn nor Fn sustain the growth of SMS-SB cells | – | – | – |
| RGDS | – | – | nor inhibits thymidine incorporation induced by peptides #9 and #12; also recorded: fails to block | neither impedes peptide binding to SMS-SB cells; also recorded: fails to block binding of peptide #9 to SMS-SB cells |
| vitronectin (protein, UniProt P04004 20-478, looked up, extracellular matrix protein, RGD-containing αv ligand) Vitronectin: DQESCKGRCTEGFNVDKKCQCDELCSYYQSCCTDYTAECKPQVTRGDVFTMPEDEYTVYDDGEEKNNATVHEQVGGPSLTSDLQAQSKGNPEQTPVLKPEEEAPAPEVGASKPEGIDSRPETLHPGRPQPPAEEELCSGKPFDAFTDLKNGSLFAFRGQYCYELDEKAVRPGYPKLIRDVWGIEGPIDAAFTRINCQGKTYLFKGSQYWRFEDGVLDPDYPRNISDGFDGIPDNVDAALALPAHSYSGRERVYFFKGKQYWEYQFQHQPSQEECEGSSLSAVFEHFAMMQRDSWEDIFELLFWGRTSAGTRQPQFISRDWHGVPGQVDAAMAGRIYISGMAPRPSLAKKQRFRHRNRKGYRSQRGHSRGRNQNSRRPSRATWLSLFSSEESNLGANNYDDYRMDWLVPATCEPIQSVFFFSGDKYYRVNLRTRRVDTVDPPYPRSIAQYWLGCPAPGHL | neither Vn nor Fn sustain the growth of SMS-SB cells | – | – | – |
